Assay results: PubChem BioAssay (NCI)
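48-hour exposure; five concentrations; linearly interpolated endpoints. At the TGI there is no net growth.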

Columns and labels:
Assay in all cases: growth of human tumour cells (NCI), 48 h
786-0 renal = tested on: 786-0 renal
IGROV1 ovarian = tested on: IGROV1 ovarian
MDA-MB-231 breast = tested on: MDA-MB-231 breast
MDA-MB-435 = tested on: MDA-MB-435
MDA-N = tested on: MDA-N
MOLT-4 leukemia = tested on: MOLT-4 leukemia
NCI-H226 lung = tested on: NCI-H226 lung
NCI-H23 lung = tested on: NCI-H23 lung
OVCAR-8 ovarian = tested on: OVCAR-8 ovarian
SK-MEL-2 melanoma = tested on: SK-MEL-2 melanoma
SK-MEL-28 melanoma = tested on: SK-MEL-28 melanoma
SK-MEL-5 melanoma = tested on: SK-MEL-5 melanoma
SK-OV-3 ovarian = tested on: SK-OV-3 ovarian
SN12C renal = tested on: SN12C renal
SNB-19 CNS = tested on: SNB-19 CNS
U251 CNS = tested on: U251 CNS
K-562 leukemia = tested on: K-562 leukemia
NCI-H522 lung = tested on: NCI-H522 lung
SF-268 CNS = tested on: SF-268 CNS
RXF 393 renal = tested on: RXF 393 renal

| Compound | TGI (786-0 renal) [µM] | TGI (IGROV1 ovarian) [µM] | TGI (MDA-MB-231 breast) [µM] | TGI (MDA-MB-435) [µM] | TGI (MDA-N) [µM] | TGI (MOLT-4 leukemia) [µM] | TGI (NCI-H226 lung) [µM] | TGI (NCI-H23 lung) [µM] | TGI (OVCAR-8 ovarian) [µM] | TGI (SK-MEL-2 melanoma) [µM] | TGI (SK-MEL-28 melanoma) [µM] | TGI (SK-MEL-5 melanoma) [µM] | TGI (SK-OV-3 ovarian) [µM] | TGI (SN12C renal) [µM] | TGI (SNB-19 CNS) [µM] | TGI (U251 CNS) [µM] | TGI (K-562 leukemia) [µM] | TGI (NCI-H522 lung) [µM] | TGI (SF-268 CNS) [µM] | TGI (RXF 393 renal) [µM] |
| --- | --- | --- | --- | --- | --- | --- | --- | --- | --- | --- | --- | --- | --- | --- | --- | --- | --- | --- | --- | --- |
| Oc1ccc(-c2csc(NNC3=NC/C(=C/c4ccc5c(c4)OCO5)S3)n2)cc1O | > 100 | 65.3 | > 100 | > 100 | > 100 | > 100 | > 100 | 47.7 | > 100 | > 100 | > 100 | > 100 | > 100 | > 100 | > 100 | > 100 |  |  |  |  |
| C=C(C)C(=O)O[C@H]1C/C(CO)=C/CCC(=C)C(OC(C)=O)[C@H]2OC(=O)C(=C)[C@H]12 (stereo partly specified) | 12.8 | 48.2 | 25.4 | 17.8 | 19.1 | 17.2 | > 100 | 25 | 39.8 | 35.6 | 20.6 | 28.3 | > 100 | 30.8 | > 100 | 35.8 | 11.7 | 11 | 10.9 |  |
| ClCCCN(CCCCl)c1ccc(C=Nc2cccc(Cl)c2)cc1 | > 67.2 | > 100 | > 73.7 | > 80.5 |  | > 67.4 | 8.67 | 53.5 | 56.5 | > 100 | > 100 | 36.7 | > 100 | > 79.7 | > 100 | > 89.1 | > 83.9 | > 100 | > 71.1 | > 52.7 |
| O=C(OCc1ccccc1CN1CCOCC1)c1cccc(Br)c1 | > 100 | > 100 | > 100 | > 100 |  |  | > 100 | 80 | > 100 | 52.9 | > 100 | 33.3 | > 100 | > 100 | > 100 | > 100 | > 100 | 53.4 | > 100 | > 100 |
| COc1cc(C2SCC(=O)N2c2cc(Cl)c(Cl)cc2Cl)cc(OC)c1OC (stereo unspecified) | > 100 | > 100 | > 100 | > 100 | 95.4 | > 100 | > 100 | > 100 | > 100 | > 100 | > 100 | > 100 | > 100 | > 100 | > 100 | > 100 | > 100 | > 100 | > 100 |  |
| Cc1ccc(-c2nc(C)c(C(=O)Nc3ccc(Cl)cc3)s2)cc1 | 29.3 | 82.4 | 75.6 | > 100 | > 100 | > 100 | 48.5 | 83.6 | 36.9 | > 100 | > 100 | 41.7 | 45.2 | > 100 | 43.2 | 48.8 | > 100 | > 100 | 91.8 |  |
| CC(=O)Nc1ccc(Nc2cc(=O)[nH]c(=O)[nH]2)cc1 | > 100 | > 100 | > 100 | > 100 | > 100 | 37.4 | > 100 |  | > 100 |  | > 100 | > 100 |  | > 100 | > 100 | > 100 | > 100 |  | > 100 | > 100 |
| CC(C)(C)c1cc(C(=O)Nc2cc(Br)c(Br)cc2S(N)(=O)=O)cc(C(C)(C)C)c1O | 23 | 26.6 | 26.4 | 24.7 |  | 18.8 | 29.3 | 40 | 26.6 | 22.7 | 26.2 | 25 | 31.3 | 21.2 | 31.1 | 26.6 | 25.7 | 24.3 | 29 | 23.1 |
| O=C(/C=C1\N=C(c2ccccc2)N(c2nc3ccc(Sc4ccccc4)cc3[nH]2)C1=O)/C=C/c1ccccc1 | > 100 | > 100 | 53.8 | 33.9 | 33.6 | > 100 |  | > 100 | > 100 | 41.5 | > 100 | 61.3 | > 100 | > 100 | > 100 | 81.3 | > 100 | 58.2 | > 100 | > 100 |
| CC(C)(C)c1cc(CC2C(=O)c3ccccc3C2=O)cc(C(C)(C)C)c1O | 21.1 | 26.4 | 7.74 | 20 | > 100 | 9.56 |  | > 100 | 14.7 | 10.8 |  | 11.1 | 7.71 | 35.9 | 12 | 13.2 | 13.1 | 14.4 | 17.1 |  |
